In publication PMC10254649, “Design, Synthesis, and Biological Evaluation of Potent and Selective Inhibitors of Ataxia Telangiectasia Mutated and Rad3-Related (ATR) Kinase for the Efficient Treatment of Cancer” (Molecules, 2023):
“And” between values parts separate entries of the source, which are not always exact repeats. Equal entries are not always repeated.

How the values were obtained:
HCT116 cells = assay: CCK-8 cell proliferation assay, HCT116; format: cell-based; settings: Homo sapiens, HCT-116; CCK-8, 72 h, ATM-normal cell line, three independent experiments; read-out: IC50 ± SD, HCT116
Procedure: (§1) A549, HCT116, NCI-H23, and LoVo cells were purchased from the Cell Resources Center of Shanghai Academy of Life Sciences, Shanghai, China. A549 cells were cultured in McCoy’s5A medium supplemented with 10% FBS (KeyGEN Biotech, Nanjing, China) and 1% penicillin/streptomycin (Gibco, 15070-063). HCT116 cells were cultured in IMDM medium supplemented with 10% FBS (KeyGEN Biotech, Nanjing, China) and 1% penicillin/streptomycin (Gibco, 15070-063). NCI-H23 cells were cultured in RPMI 1640 medium supplemented with 10% FBS (KeyGEN Biotech, Nanjing, China) and 1% penicillin/streptomycin (Gibco, 15070-063). LoVo cells were cultured in F12K medium supplemented with 10% FBS (KeyGEN Biotech, Nanjing, China) and 1% penicillin/streptomycin (Gibco, 15070-063). All cells were cultured in an incubator at 37 °C under a 5% CO2 atmosphere.
(§2) For the assay, 3000/well cells were planted into 96-well plates for 24 h and then treated with the indicated doses of drugs or controls for 72 h. Following the manufacturer’s instructions, cell proliferation/survival was measured using the CCK-8 (KeyGEN Biotech, Nanjing, China) assay and plotted via GraphPad 8.0.

LoVo xenografts = assay: LoVo tumor xenograft mouse model, antitumor efficacy and tolerability; format: in vivo
Procedure: Balb/c nude mice (18–22 g, female, 4 weeks old) were purchased from Hangzhou Medical College (Hangzhou, China). All mice were inoculated subcutaneously in the right flank with 5 × 10^6 LoVo cells to initiate tumor growth. When the mean tumor volume reached approximately 100 mm^3, all mice were randomly divided into 8 groups (n = 5 per group) based on body weight and volume. […] Cisplatin was administered twice a week at the indicated doses. Tumor size and animal weight were measured every 3 days. Tumor volume was calculated as tumor volume (cm^3) = (length × width^2)/2. Tumor inhibition rate (%) = (1 − mean tumor weight in the treatment group/mean tumor weight in the control group) × 100%. The results were obtained from 5 test mice (mean ± SD) and calculated using GraphPad 8.0 software.

A549 cells = assay: CCK-8 cell proliferation assay, A549; format: cell-based; settings: Homo sapiens, CCK-8, 72 h, ATM-normal cell line, three independent experiments, read-out: IC50 ± SD, A549
Procedure: as §1, §2

LoVo cells = assay: CCK-8 cell proliferation assay, LoVo; format: cell-based; settings: Homo sapiens, CCK-8, 72 h, ATM-deficient cell line, three independent experiments, read-out: IC50 ± SD, LoVo
Procedure: as §1, §2

NCI-H23 cells = assay: CCK-8 cell proliferation assay, NCI-H23; format: cell-based; settings: Homo sapiens, CCK-8, 72 h, ATM-deficient cell line, three independent experiments, read-out: IC50 ± SD, NCI-H23
Procedure: as §1, §2

ATR = ATR (Homo sapiens, UniProt Q13535); assay: In vitro inhibitory activity against the ATR enzyme; format: biochemical; settings: mean ± SD of two independent experiments; read-out: ATR IC50 ± SD
Sequence of ATR (Q13535 whole entry): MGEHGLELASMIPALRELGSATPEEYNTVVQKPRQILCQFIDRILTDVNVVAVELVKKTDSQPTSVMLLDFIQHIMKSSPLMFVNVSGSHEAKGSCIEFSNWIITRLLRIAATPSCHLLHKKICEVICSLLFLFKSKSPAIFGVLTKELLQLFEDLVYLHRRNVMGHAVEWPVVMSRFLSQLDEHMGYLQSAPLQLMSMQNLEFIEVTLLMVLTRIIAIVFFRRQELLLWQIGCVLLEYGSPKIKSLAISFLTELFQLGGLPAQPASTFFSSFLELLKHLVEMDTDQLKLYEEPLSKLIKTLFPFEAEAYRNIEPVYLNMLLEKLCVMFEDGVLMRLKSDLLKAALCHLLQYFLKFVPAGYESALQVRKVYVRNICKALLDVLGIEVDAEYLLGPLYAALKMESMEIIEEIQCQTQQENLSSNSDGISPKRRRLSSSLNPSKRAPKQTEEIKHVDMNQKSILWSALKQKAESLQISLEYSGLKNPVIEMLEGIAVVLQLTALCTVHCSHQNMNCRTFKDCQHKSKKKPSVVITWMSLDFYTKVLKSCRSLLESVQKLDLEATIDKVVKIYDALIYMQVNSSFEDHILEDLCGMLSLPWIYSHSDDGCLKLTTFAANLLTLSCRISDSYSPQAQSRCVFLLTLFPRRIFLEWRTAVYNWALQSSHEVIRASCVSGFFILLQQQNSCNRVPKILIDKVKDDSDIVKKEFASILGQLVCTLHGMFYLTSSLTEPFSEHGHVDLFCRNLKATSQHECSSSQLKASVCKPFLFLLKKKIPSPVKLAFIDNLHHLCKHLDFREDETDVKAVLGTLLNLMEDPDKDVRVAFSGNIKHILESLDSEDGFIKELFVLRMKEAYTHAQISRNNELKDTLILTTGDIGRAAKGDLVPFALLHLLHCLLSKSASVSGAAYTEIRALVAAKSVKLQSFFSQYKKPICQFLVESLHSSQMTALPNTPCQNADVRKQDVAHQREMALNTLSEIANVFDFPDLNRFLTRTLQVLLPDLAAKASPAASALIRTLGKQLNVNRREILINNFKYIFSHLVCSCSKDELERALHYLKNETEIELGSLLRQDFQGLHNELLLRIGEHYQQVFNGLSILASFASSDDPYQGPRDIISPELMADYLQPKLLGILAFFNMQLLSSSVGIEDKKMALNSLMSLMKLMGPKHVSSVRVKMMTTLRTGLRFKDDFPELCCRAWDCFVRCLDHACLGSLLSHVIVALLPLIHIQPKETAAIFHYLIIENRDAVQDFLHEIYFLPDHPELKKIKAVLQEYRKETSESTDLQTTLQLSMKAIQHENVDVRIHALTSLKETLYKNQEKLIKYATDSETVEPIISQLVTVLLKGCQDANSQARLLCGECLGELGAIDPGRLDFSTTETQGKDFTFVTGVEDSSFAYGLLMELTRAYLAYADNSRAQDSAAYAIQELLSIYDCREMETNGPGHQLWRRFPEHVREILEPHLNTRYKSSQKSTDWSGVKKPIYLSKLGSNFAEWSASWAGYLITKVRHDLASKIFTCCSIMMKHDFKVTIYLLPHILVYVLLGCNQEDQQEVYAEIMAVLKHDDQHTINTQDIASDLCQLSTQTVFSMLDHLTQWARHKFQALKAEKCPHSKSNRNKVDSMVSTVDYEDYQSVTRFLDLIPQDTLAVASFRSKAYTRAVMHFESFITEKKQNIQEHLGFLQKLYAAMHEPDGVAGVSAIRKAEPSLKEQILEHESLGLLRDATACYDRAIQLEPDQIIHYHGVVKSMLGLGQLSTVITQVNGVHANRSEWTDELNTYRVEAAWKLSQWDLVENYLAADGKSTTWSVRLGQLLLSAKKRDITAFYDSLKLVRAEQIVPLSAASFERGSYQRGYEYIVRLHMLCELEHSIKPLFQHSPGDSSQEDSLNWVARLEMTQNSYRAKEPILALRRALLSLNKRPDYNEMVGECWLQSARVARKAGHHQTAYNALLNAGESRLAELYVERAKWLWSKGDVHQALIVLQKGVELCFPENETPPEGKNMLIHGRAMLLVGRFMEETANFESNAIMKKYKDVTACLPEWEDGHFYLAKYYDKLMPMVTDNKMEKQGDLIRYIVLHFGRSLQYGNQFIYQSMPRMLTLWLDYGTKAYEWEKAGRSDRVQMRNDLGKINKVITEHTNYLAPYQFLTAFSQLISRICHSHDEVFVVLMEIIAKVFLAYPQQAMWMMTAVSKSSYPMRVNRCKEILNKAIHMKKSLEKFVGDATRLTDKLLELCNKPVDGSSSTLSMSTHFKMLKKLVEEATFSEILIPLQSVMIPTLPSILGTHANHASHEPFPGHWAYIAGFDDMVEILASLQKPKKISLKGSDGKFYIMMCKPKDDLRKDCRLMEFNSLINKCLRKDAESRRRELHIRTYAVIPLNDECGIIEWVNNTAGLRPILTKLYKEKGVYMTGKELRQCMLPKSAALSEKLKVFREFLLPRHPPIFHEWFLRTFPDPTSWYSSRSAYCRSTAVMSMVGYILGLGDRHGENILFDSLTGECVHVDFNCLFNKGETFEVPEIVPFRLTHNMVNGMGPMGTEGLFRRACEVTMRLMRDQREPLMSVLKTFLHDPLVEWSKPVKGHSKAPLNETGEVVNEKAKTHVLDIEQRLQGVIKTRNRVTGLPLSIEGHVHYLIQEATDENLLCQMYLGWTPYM
Sequence of ATR (Q8WXE1 whole entry partner): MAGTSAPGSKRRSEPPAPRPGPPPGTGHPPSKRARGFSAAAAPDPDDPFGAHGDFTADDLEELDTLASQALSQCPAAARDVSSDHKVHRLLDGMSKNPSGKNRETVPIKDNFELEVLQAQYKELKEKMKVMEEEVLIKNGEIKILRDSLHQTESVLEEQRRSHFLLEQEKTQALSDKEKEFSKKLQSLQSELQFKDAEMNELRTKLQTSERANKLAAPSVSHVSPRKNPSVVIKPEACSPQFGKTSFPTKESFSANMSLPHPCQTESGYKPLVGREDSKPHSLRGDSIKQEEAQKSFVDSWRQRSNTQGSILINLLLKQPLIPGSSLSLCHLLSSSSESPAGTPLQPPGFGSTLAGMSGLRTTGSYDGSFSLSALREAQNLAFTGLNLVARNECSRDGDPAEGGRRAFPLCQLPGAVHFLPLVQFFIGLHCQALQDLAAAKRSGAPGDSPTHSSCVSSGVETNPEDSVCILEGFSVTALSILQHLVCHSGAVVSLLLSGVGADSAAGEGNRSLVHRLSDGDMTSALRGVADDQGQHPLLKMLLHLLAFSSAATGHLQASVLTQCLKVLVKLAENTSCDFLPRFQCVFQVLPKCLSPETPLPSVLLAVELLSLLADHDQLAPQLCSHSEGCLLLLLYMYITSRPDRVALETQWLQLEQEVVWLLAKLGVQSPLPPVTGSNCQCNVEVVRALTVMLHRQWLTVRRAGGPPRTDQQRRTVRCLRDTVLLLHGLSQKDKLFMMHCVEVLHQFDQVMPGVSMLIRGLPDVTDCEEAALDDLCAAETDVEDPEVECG

Structure (SMILES) | IC50 (ATR) | melting point | further results
C[C@@H]1COCCN1c1cc(C2([S@](C)(=N)=O)CC2)nc(-c2cc[nH]c3nccc2-3)n1 [AZD6738, ceralasertib, reference compound] |  |  | IC50 (HCT116 cells): 4320 ± 160 nM; tumor growth inhibition (TGI) (LoVo xenografts; 25 mg/kg twice daily, days 1-18, single agent, AZD6738 orally, ZH-12 intraperitoneally): 42.5%; IC50 (A549 cells): 6600 ± 240 nM; IC50 (LoVo cells): 410 ± 10 nM; IC50 (NCI-H23 cells): 500 ± 60 nM
CCS(=O)(=O)N1CCc2c(nc(-c3ccnc4[nH]ccc34)nc2N2CCOC[C@H]2C)C1 [ZH-1, (R)-4-(7-(ethylsulfonyl)-2-(1H-pyrrolo[2,3-b]pyridin-4-yl)-5,6,7,8-tetrahydropyrido[3,4-d]pyrimidin-4-yl)-3-methylmorpholine] | 53.3 ± 1.08 nM |  | 
CCC(=O)N1CCc2c(nc(-c3ccnc4[nH]ccc34)nc2N2CCOC[C@H]2C)C1 [ZH-2, (R)-1-(4-(3-methylmorpholino)-2-(1H-pyrrolo[2,3-b]pyridin-4-yl)-5,8-dihydropyrido[3,4-d]pyrimidin-7(6H)-yl)propan-1-one] | 41.6 ± 1.38 nM |  | 
CCCC(=O)N1CCc2c(nc(-c3ccnc4[nH]ccc34)nc2N2CCOC[C@H]2C)C1 [ZH-3, (R)-1-(4-(3-methylmorpholino)-2-(1H-pyrrolo[2,3-b]pyridin-4-yl)-5,8-dihydropyrido[3,4-d]pyrimidin-7(6H)-yl)butan-1-one] | 42.5 ± 1.05 nM |  | 
CC(C)CC(=O)N1CCc2c(nc(-c3ccnc4[nH]ccc34)nc2N2CCOC[C@H]2C)C1 [ZH-4, (R)-3-methyl-1-(4-(3-methylmorpholino)-2-(1H-pyrrolo[2,3-b]pyridin-4-yl)-5,8-dihydropyrido[3,4-d]pyrimidin-7(6H)-yl)butan-1-one] | 7.31 ± 0.16 nM |  | IC50 (HCT116 cells): 5170 ± 580 nM; IC50 (A549 cells): 20800 ± 1210 nM; IC50 (LoVo cells): 18000 ± 1690 nM; IC50 (NCI-H23 cells): 1740 ± 50 nM
C[C@@H]1COCCN1c1nc(-c2ccnc3[nH]ccc23)nc2c1CCN(C(=O)CC#N)C2 [ZH-5, (R)-3-(4-(3-methylmorpholino)-2-(1H-pyrrolo[2,3-b]pyridinedin-4-yl)-5,8-dihydropyrido[3,4-d]pyrimidin-7(6H)-yl)-3-oxopropanenitrile] | 11.3 nM and 10.8 nM | > 250 °C | 
C[C@@H]1COCCN1c1nc(-c2ccnc3[nH]ccc23)nc2c1CCN(C(=O)CO)C2 [ZH-6, (R)-2-hydroxy-1-(4-(3-methylmorpholino)-2-(1H-pyrrolo[2,3-b]pyridinedin-4-yl)-5,8-dihydropyrido[3,4-d]pyrimidin-7(6H)-yl)ethan-1-one] | 34.03 ± 0.27 nM | 174 to 176 °C | 
N.N.[Cl][Pt][Cl] [cisplatin, reference compound] |  |  | tumor growth inhibition (TGI) (LoVo xenografts; cisplatin 6 mg/kg twice a week, alone): 26.1%

Now from value to compound, other results behind:

IC50 (ATR) | melting point | Structure (SMILES) | further results
9.23 ± 0.16 nM | 294 to 296 °C | COCC(=O)N1CCc2c(nc(-c3ccnc4[nH]ccc34)nc2N2CCOC[C@H]2C)C1 [ZH-7, (R)-2-methoxy-1-(4-(3-methylmorpholino)-2-(1H-pyrrolo[2,3-b]pyridinedin-4-yl)-5,8-dihydropyrido[3,4-d]pyrimidin-7(6H)-yl)ethan-1-one] | IC50 (HCT116 cells): 6020 ± 260 nM; IC50 (A549 cells): 25600 ± 1620 nM; IC50 (LoVo cells): 5710 ± 810 nM; IC50 (NCI-H23 cells): 6770 ± 430 nM
27.5 ± 1.04 nM |  | C[C@@H]1COCCN1c1nc(-c2ccnc3[nH]ccc23)nc2c1CCN(C(=O)C1CCOCC1)C2 [ZH-8, (R)-(4-(3-methylmorpholino)-2-(1H-pyrrolo[2,3-b]pyridin-4-yl)-5,8-dihydropyrido[3,4-d]pyrimidin-7(6H)-yl)(tetrahydro-2H-pyran-4-yl)methanone] | 
16 ± 1.08 nM | 222 to 224 °C | C[C@@H]1COCCN1c1nc(-c2ccnc3[nH]ccc23)nc2c1CCN(C(=O)C1CC(=O)C1)C2 [ZH-9, (R)-3-(4-(3-methylmorpholino)-2-(1H-pyrrolo[2,3-b]pyridinedin-4-yl)-5,6,7,8-tetrahydropyrido[3,4-d]pyrimidine-7-carbonyl)cyclobutan-1-one] | 
27.5 nM and 11.9 nM | 240 to 242 °C | C[C@@H]1COCCN1c1nc(-c2ccnc3[nH]ccc23)nc2c1CCN(C(=O)C1CCC(=O)CC1)C2 [ZH-10, (R)-4-(4-(3-methylmorpholino)-2-(1H-pyrrolo[2,3-b]pyridinedin-4-yl)-5,6,7,8-tetrahydropyrido[3,4-d]pyrimidine-7-carbonyl)cyclohexan-1-one] | 
11.4 ± 0.25 nM |  | CCNC(=O)N1CCc2c(nc(-c3ccnc4[nH]ccc34)nc2N2CCOC[C@H]2C)C1 [ZH-11, (R)-N-ethyl-4-(3-methylmorpholino)-2-(1H-pyrrolo[2,3-b]pyridin-4-yl)-5,8-dihydropyrido[3,4-d]pyrimidine-7(6H)-carboxamide] | 
214.66 ± 0.04 nM |  | C[C@@H]1COCCN1c1nc(-c2cccc3[nH]ccc23)nc2c1CCN(C(=O)C1CCOCC1)C2 [ZH-13, (R)-(2-(1H-indol-4-yl)-4-(3-methylmorpholino)-5,8-dihydropyrido[3,4-d]pyrimidin-7(6H)-yl)(tetrahydro-2H-pyran-4-yl)methanone] | 
14.9 ± 0.29 nM |  | CCNC(=O)N1CCc2c(nc(-c3cccc4[nH]ccc34)nc2N2CCOC[C@H]2C)C1 [ZH-14, (R)-N-ethyl-2-(1H-indol-4-yl)-4-(3-methylmorpholino)-5,8-dihydropyrido[3,4-d]pyrimidine-7(6H)-carboxamide] | 
